According to US12491170B2, “Stable treprostinil prodrugs” (United Therapeutics Corporation, priority 2020, dated 2025):

What was measured:
[1] = molecular target: T1, prostaglandin D2 (PGD2) receptor 1 (DP1) (Homo sapiens, UniProt Q13258); assay: DP1 receptor cAMP agonist assay (HEK293T cells); format: cell-based; details: Table 22; relative to treprostinil EC50 values; * partial agonists or ambiguous dose-response curves
T1 sequence (Q13258 1-359): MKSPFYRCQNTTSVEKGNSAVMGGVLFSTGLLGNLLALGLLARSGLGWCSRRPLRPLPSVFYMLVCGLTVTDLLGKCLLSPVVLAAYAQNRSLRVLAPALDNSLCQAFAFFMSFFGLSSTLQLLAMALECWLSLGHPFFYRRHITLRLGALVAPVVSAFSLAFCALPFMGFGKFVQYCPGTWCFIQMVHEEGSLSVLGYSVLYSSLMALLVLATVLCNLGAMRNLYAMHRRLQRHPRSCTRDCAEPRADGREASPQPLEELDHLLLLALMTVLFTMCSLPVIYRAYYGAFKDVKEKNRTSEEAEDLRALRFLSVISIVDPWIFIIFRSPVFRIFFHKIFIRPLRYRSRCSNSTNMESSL
Experimental: (§1) Cyclic AMP assay kit: Multiscreen™ TR-FRET cAMP 1.0 No Wash Assay Kit (Multispan, Inc.)
(§2) Cells were thawed from frozen cells and resuspended in assay buffer at desired concentrations. cAMP or Calcium assays were performed according to the manufacturer's protocol using Multiscreen™ TR-FRET cAMP 1.0 No Wash Assay Kit or Multiscreen™ Calcium 1.0 No Wash Kit.
(§3) Gas Cyclic AMP (cAMP) Assay: In agonist mode testing, cells were seeded in a 384-well plate at an appropriate density and then were treated with compounds and incubated at 37° C. for 20 minutes. The reaction was terminated by […] trFluor™ Eu-labeled cAMP and trFluor™ 650-labeled anti-cAMP antibody in lysis buffer. […] All testing wells contained 0.1% DMSO in the final concentrations.
(§4) Data in graphs are represented in Mean±SD. Dose-dependent responses were fitted with sigmoidal dose-response curves allowing variable slopes using GraphPad Prism version 6 (Graphpad Prism).
(§5) These studies used cell lines overexpressing either human IP, EP2 or DP1, or EP1 receptors, and following incubation with varying concentrations of compounds, cAMP levels were measured using Fluorescence Resonance Energy Transfer (FRET).

[2] = Stability in liver microsomes, human; details: for AUC Mono (treprostinil formed): human
[3] = Stability in cryopreserved hepatocytes, human; details: for Mono AUC (treprostinil formed): human
[4] = Stability in liver microsomes, rat; details: for AUC Mono (treprostinil formed): rat
[5] = molecular target: prostaglandin E2 (PGE2) receptor 2 (EP2) (Homo sapiens, UniProt P43116); assay: EP2 receptor cAMP agonist assay (HEK293T cells); format: cell-based; details: Table 22, relative to treprostinil EC50 values, * partial agonists or ambiguous dose-response curves
Sequence of prostaglandin E2 (PGE2) receptor 2 (EP2) (P43116 whole entry): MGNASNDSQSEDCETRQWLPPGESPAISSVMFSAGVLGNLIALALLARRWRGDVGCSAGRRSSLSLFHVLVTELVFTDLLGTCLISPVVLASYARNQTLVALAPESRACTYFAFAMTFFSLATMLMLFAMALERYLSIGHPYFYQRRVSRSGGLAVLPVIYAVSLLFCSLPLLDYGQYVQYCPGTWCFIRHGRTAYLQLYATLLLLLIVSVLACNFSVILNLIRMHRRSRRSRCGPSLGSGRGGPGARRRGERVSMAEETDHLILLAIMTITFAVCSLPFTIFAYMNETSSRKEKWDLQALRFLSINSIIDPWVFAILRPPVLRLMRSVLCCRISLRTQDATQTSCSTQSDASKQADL
Experimental: as §1, §2, §3, §4, §5

## CCCCCC(CCC1C(O)CC2Cc3c(cccc3OCC(=O)O)CC21)OC(=O)CC (stereo not shown) [Prodrug LV]
[1]
  DP1 Relative to Tre: 94x
[2]
  Treprostinil Concentration 0 min: 1.17 µM
  Treprostinil Concentration 15 min: 1.01 µM
  Treprostinil Concentration 30 min: 0.837 µM
  Treprostinil Concentration 60 min: 0.736 µM
  Treprostinil Concentration 120 min: 0.389 µM
  AUC Mono (treprostinil formed): 44.9 µmol·min/L
[3]
  Treprostinil Concentration 0 min: 0.113 µM
  Treprostinil Concentration 120 min: 0.527 µM
  Mono AUC (treprostinil formed): 68.8 µmol·min/L
[4]
  Treprostinil Concentration 0 min: 0.26 µM
  Treprostinil Concentration 15 min: 0.43 µM
  Treprostinil Concentration 30 min: 0.525 µM
  Treprostinil Concentration 60 min: 0.586 µM
  Treprostinil Concentration 120 min: 0.553 µM
  AUC Mono (treprostinil formed): 30.9 µmol·min/L
[5]
  EP2 Relative to Tre: 50x

## CCCCCC(CCC1C(O)CC2Cc3c(cccc3OCC(=O)O)CC21)OP(=O)(O)O (stereo not shown) [Prodrug VI]
[1]
  DP1 Relative to Tre: 2x
[2]
  Treprostinil Concentration 0 min: 0.02 µM
  Treprostinil Concentration 15 min: 0.038 µM
  Treprostinil Concentration 30 min: 0.038 µM
  Treprostinil Concentration 60 min: 0.03 µM
  Treprostinil Concentration 120 min: 0.061 µM
  AUC Mono (treprostinil formed): 2.4 µmol·min/L
[3]
  Treprostinil Concentration 0 min: 0 µM
  Treprostinil Concentration 120 min: 0.540 µM
  Mono AUC (treprostinil formed): 48.7 µmol·min/L
[4]
  Treprostinil Concentration 0 min: 0.27 µM
  Treprostinil Concentration 15 min: 0.39 µM
  Treprostinil Concentration 30 min: 0.46 µM
  Treprostinil Concentration 60 min: 0.53 µM
  Treprostinil Concentration 120 min: 0.73 µM
  AUC Mono (treprostinil formed): 31.4 µmol·min/L
[5]
  EP2 Relative to Tre: 4x
[5]; listed as Prodrug VI repeat
  EP2 Relative to Tre: 9x

## CCCCCC(CCC1C(O)CC2Cc3c(cccc3OCC(=O)O)CC21)OC(C)=O (stereo not shown) [Prodrug XLIII]
[1]
  DP1 Relative to Tre: 272x
[2]
  Treprostinil Concentration 0 min: 0.883 µM
  Treprostinil Concentration 15 min: 0.681 µM
  Treprostinil Concentration 30 min: 0.602 µM
  Treprostinil Concentration 60 min: 0.513 µM
  Treprostinil Concentration 120 min: 0.341 µM
  AUC Mono (treprostinil formed): 32.6 µmol·min/L
[3]
  Treprostinil Concentration 0 min: 0.00744 µM
  Treprostinil Concentration 120 min: 0.507 µM
  Mono AUC (treprostinil formed): 62.2 µmol·min/L
[4]
  Treprostinil Concentration 0 min: 0.035 µM
  Treprostinil Concentration 15 min: 0.0741 µM
  Treprostinil Concentration 30 min: 0.111 µM
  Treprostinil Concentration 60 min: 0.145 µM
  Treprostinil Concentration 120 min: 0.206 µM
  AUC Mono (treprostinil formed): 8.0 µmol·min/L
[5]
  EP2 Relative to Tre: 461x
